Consider two compounds from patent US20050191348A1 (priority 2004, published 2005).

Structures are written as SMILES. Marks after values point to notes of the source that are not given here.

The subject of one assay is PKC. Put plainly: PKC phosphorylation in PC12 cell lysates, Western blot with p-PKC (pan) antibody. Type of assay: cell-based, rat. The settings on record: PC12, pre-treatment 2.5 μM. The procedure:
(iv) Immunoblot Analyses. For Western blot analyses, attached cells were washed once in cold PBS and then lysed in 1× nonreducing Laemmli buffer followed by boiling for 3-5 min. Protein content was determined using the Bradford method. Equal amounts of protein were separated by SDS-polyacrylamide gel electrophoresis and blotted onto polyvinylidene difluoride (PVDF) membranes (Millipore). Membranes were treated with blocking buffer (5% dry milk in PBS or 5% dry milk, 0.05% Tween 20 (Sigma) in TBS). Primary antibodies were diluted in PBS or in TBS containing 5% BSA, 0.05% Tween 20 and incubated with membranes for 20 h at 4° C., followed by incubation (1 h at room temperature) in dilutions of horseradish peroxidase (HRP)-conjugated secondary antibodies in the same buffers. Following antibody incubations, membranes were washed in 0.5% Tween 20 in PBS or TBS. Detection was achieved using ECL™ Western Blotting Detection Reagent (Amersham, Pharmacia, Little Chalfort Buckinghamshire, UK). Quantification of results was accomplished by measuring the optical density of the labeled bands from the autoradiograms by scanning laser densitometry using the computerized imaging program Bio-ID (Imager, Bio1D software; Vilber Lourmat, Marne La Vallee, France). The values were normalized to β-actin intensity levels.
Since activation of PKC has been shown previously to modulate cell viability, resulting in protection of neuronal cells, it was of interest to investigate the effects of rasagiline on PKC activation. In one experiment, PC12 cells were untreated or treated with various concentrations of rasagiline (0.1, 1 and 10 μM) for 1 hour. […] Phosphorylation of PKC was analyzed in cell lysates by Western blotting and detected with p-PKC (pan) antibody.
The effect of propargylamine on PKC phosphorylation/activation was investigated as described in Example 2 above.

The test system of a further assay is MAPK. The assay can be described thus: MAPK activation (phospho-p44/42 MAPK immunoblot) in PC12 cells. Type of assay: cell-based, rat. The settings on record: PC12, preincubation 2.5 μM, rasagiline 10 μM 0.5 h. The procedure:
(viii) Extracellular signal-regulated kinase (ERK) activity. The kinase activity of the ERKs was measured using the MAPK assay kit (Cell Signaling Technology) according to the manufacturer's protocol. In brief, for kinase activity assays, PC12 cells were grown in 6-well plates (5×10^5 cells/well). Eighteen to twenty-four hours before experiments, the medium was replaced with DMEM with 0.5% FCS and treated as described in the figures. Experimental treatments were performed in 1 ml medium containing 0.5% FCS, with the vehicle or test drugs and/or inhibitors at 37° C., as described in the figures. After treatment, reactions were stopped by placing cells on ice and aspirating the medium. Cells were harvested in 50 mM Tris-HCl, pH 8.0, 150 mM NaCl, 5 mM EDTA, 1 mM DTT, 1% Triton X-100, and protease- and phosphatase-inhibitor cocktails. Protein concentration was determined by the Bradford method. As described previously (Yogev-Falach et al., 2002), each cell lysate, containing 30 μg protein, was separated on 4-12% SDS-polyacrylamide electrophoresis gels, immunoblotted, and identified using phospho-p44/42 MAPK (Thr202/Tyr204) antibody or p44/42 MAPK antibody. Data are representative of three to six independent experiments.
To study the effect of rasagiline on MAPK activation, PC12 cells were treated for 0.5 h with increasing concentrations of rasagiline (0.1, 1 and 10 μM), and quantification of the phospho-MAPK blots were normalized using the total MAPK blots, or PC12 cells were preincubated for 15 min with vehicle alone, or with PD98059 (30 μM) or GF109203X (2.5 μM) and then incubated without or with rasagiline (10 μM) for 0.5 h. Aliquots of cell lysates were then subjected to immunoblot analysis and probed with anti-phospho-MAPK (top blots) and anti-MAPK (bottom blots).
For the effect of propargylamine on MAPK activation, PC12 cells were treated for 0.5 h with increasing concentrations of propargylamine (0.1, 1 and 10 μM). Aliquots of cell lysates were then subjected to immunoblot analysis and probed with anti-phospho-MAPK and anti-MAP kinase. Quantification of the phospho-MAPK were normalized using the total MAPK blots.

The subject of another assay is caspase-3, BAD. Put plainly: Serum free-induced caspase-3 cleavage and BAD levels (rasagiline, data not shown). Type of assay: cell-based.
For assay [1], the system named is PC12 cells. Put plainly: Cell death under serum deprivation (apoptotic cell death detection ELISA), PC12. Type of assay: cell-based, rat. The settings on record: PC12, 24 h serum deprivation, significant at 1 and 10 μM. (ELISA stands for enzyme-linked immunosorbent assay.)
Method: Two different neuronal cell lines were used: the rat PC12 and the human neuroblastoma SH-SY5Y cells.
PC12 cells, originated from rat pheochromocytoma, were grown to confluence in T75 flasks containing DMEM (1000 mg/l glucose) and supplemented with 5% FCS, 10% horse serum, and a mixture of 1% of penicillin/streptomycin/nystatin.
Cell cultures were incubated at 37° C. in a humid 5% CO2-95% air environment. For cell viability assays, cells were treated with various drugs in serum free media containing 0.1% BSA.
In order to test cell viability, PC12 cells and SH-SY5Y neuroblastoma cels were incubated under serum deprivation and were untreated or treated with rasagiline (0.1. 1 or 10 μM) for 24 hours.
The next assay relates to sAPPα. The assay can be described thus: sAPPα release into medium of SH-SY5Y neuroblastoma cells. The settings on record: 1 μM, 3 h, SH-SY5Y conditioned media, mean ± SE of three experiments. Type of assay: cell-based, human. The procedure: For the experiments, cells were seeded (2×10^6) onto 100-mm plates (for SH-SY5Y cells) or T75 flasks (for PC12 cells) in culture medium supplemented with full serum for 48 h. The cells were replaced with fresh medium containing 0.5% FCS for an additional 24 h (subconfluent culture), and then the experiments were performed in fresh medium containing 0.5% FCS for the indicated time periods at 37° C. After incubation with various drugs, the conditioned media were collected, centrifuged at 3500 g (10 min, 4° C.) to remove cell debris, and the cleared supernatants were concentrated 10-fold by lyophilization.
(vii) Determination of sAPP. Protein concentrations of cell lysates were assayed using Bradford reagent (Sigma Chemical). Equal amounts of volumes of conditioned medium, standardized to lysate protein, were subjected to […], using either the MAbs 22C11 or 6E10 in 50 mM Tris-HCl, pH 7.4, 150 mM NaCl, containing 0.05% Tween 20 and 1% BSA. Immunoreactivity was detected using anti-mouse IgG-conjugated with HRP and an enhanced chemiluminescence method (Amersham, Pharmacia Biotech, UK). Blots were developed for different times to span a linear range of response, and the relative intensity of immunoreactive bands on the exposed films was quantified by computer-assisted densitometry program (Quantity One, Bio-Rad, Hercules, Calif., USA).
It was of interest to determine whether rasagiline and other propargylamine-containing drugs also regulate APP processing. For this purpose, SH-SY5Y neuroblastoma cells were incubated for 3 h without or with 1 μM of various drugs (TV3326 and its S-isomer TV3279, rasagiline and its S-isomer TVP1022, selegiline, aminoindan), and sAPPα was measured in the media as described in Materials and Methods.
We further characterized, in detail, the effect of rasagiline on APP processing and the signaling pathways that are involved. Thus, SH-SY5Y neuroblastoma cells were incubated for 3 h without or with increasing concentrations of rasagiline (0.1, 1 and 10 μM), and sAPPα was measured in the media as described in Materials and Methods.
For the sAPPα release, SH-SY5Y neuroblastoma cells or PC12 cells were incubated for 3 h without or with increasing concentrations of propargylamine (0.1, 1 and 10 μM), and sAPPα was measured in the media as described in Materials and Methods.

Assay [2] relates to PC12 cells. The settings on record: PC12, Aβ1-42 10 μM 24 h.
The next assay relates to MAO. The settings on record: Youdim et al., 2001b; cited from earlier work.

As for `CN(C)CCCn1cc(C2=C(c3c[nH]c4ccccc34)C(=O)NC2=O)c2ccccc21` [GF109203X], the “effect on propargylamine-induced PKC phosphorylation” value in the assay on PKC (propargylamine 1 μM 1 h) is listed as “blocked the effect of propargylamine on PKC phosphorylation”. Moreover, the “effect on rasagiline-induced PKC phosphorylation” value with PKC (rasagiline 1 μM 1 h) is reported as “significantly reduced rasagiline-induced PKC phosphorylation”. The “effect on rasagiline-induced MAPK activation” value in the assay with MAPK is “abolished the effect of rasagiline on MAPK activation”. The “effect on rasagiline-induced decrease of BAD” value with caspase-3, BAD is “blocked”. Moreover, the “effect on rasagiline suppression of caspase-3 cleavage” value in the assay on caspase-3, BAD (data not shown) is “reversed”.

On to `C#CCN[C@@H]1CCc2ccccc21` [TVP1022], for which, in the assay with PC12 cells [1], the “cell death induced by serum deprivation” value was “protected serum deprived PC12 cells from apoptosis”. Moreover, the “sAPPα secretion (fold/basal)” value in the assay on sAPPα was 2.43 ± 0.27^c fold/basal. In the assay on PC12 cells [2], the “protection against Aβ1-42 neurotoxicity” value was “protected PC12 cells from Aβ-evoked apoptosis”. The “fold weaker as an inhibitor of MAO than rasagiline” value in the assay on MAO is on record as “at least 1000 fold”.
